From PMC1976805, “Preclinical pharmacokinetics of benznidazole” (British Journal of Cancer, 1984)
Read-outs that look alike come from different tables or passages of the source.

Legend:
[1] = Whole plasma pharmacokinetics of benznidazole in mice (HPLC); format: in vivo, mouse; conditions: for i.p. bioavailability (from AUC0-∞): 65 mg kg-1 i.p.; for half-life / Tmax: mouse; for Tmax: read-out: time of peak plasma concentration (converted)
Text: Br. J. Cancer (1984), 50, 291-303 Preclinical pharmacokinetics of benznidazole P. Workman', R.A.S. White2, M.I. Walton', L.N. Owen2* & P.R. Twentyman' 1MRC Clinical Oncology and Radiotherapeutics Unit, MRC Centre, Hills Road, Cambridge CB2 2QH, and 2Department of Clinical Veterinary Medicine, University of Cambridge, Madingley Road, Cambridge CB3 OES, UK. […] We have investigated the detailed pharmacokinetics of benznidazole in mice, dogs and sheep to provide a data base for the estimation of doses required for chemosensitization in man. Pharmacokinetic behaviour was linear except at high doses in mice. Absorption was fairly rapid and bioavailability was complete following both i.p. administration in mice and oral administration in dogs. Elimination t4 values were longer than for MISO, being 90 min in mice, 4-5 h in sheep and 9-11 h in dogs. At doses giving linear kinetics, peak whole plasma concentrations per administered mgkg-1 were 0.75 jigml-1 for the i.p. route in mice and 1.8jugmlP' for the oral route in dogs. Though between 39 and 59% of plasma benznidazole was bound to protein, tissue penetration was generally good. Tissue/whole plasma ratios ranged from 59-99% for transplantable mouse tumours and from 14-70% for spontaneous dog neoplasms. Nervous tissue penetration was similar to that in tumours: brain/whole plasma ratios averaged between 61 and 76% in mice and 42% in dogs, while peripheral nerve/whole plasma ratios in dogs averaged 74%. Mean liver/whole plasma ratios were 42% and 71% in BALB/c and C3H/He mouse strains respectively. Only -5% of the administered dose was excreted unchanged in the urine, indicating the likelihood of extensive metabolism. […] Enhancement of CCNU response is likely to require circulating benznidazole concentrations of 10-30 pgml-1 and we predict that these will be obtained with oral doses of 6-20 mgkg- 1 in man. […] This enhancement, or chemosensitization, is usually greater than that seen in dose-limiting normal tissues, resulting in an improved therapeutic index. Because of the relatively high doses of MISO usually required for chemosensitization in mice (see above refs), and also because of its neurotoxicity in man (Dische et al., 1977), we have been interested in finding an improved chemosensitizer. […] The lipophilic ana- logue benznidazole (N-benzyl-(2-nitroimidazolyl) acetamide, Ro 07-1051; Radanil; Roche), the structure of which is shown in Figure 1, was selected for detailed study because of its ability to *Present address: Animal Health Trust, Small Animals Centre, Lanwades Park, Kennett, Newmarket, Suffolk CB8 7PN, UK. Correspondence: P. Workman. […] These findings have been confirmed independently by Siemann et al. (1983). Although benznidazole is used quite widely in South America to treat patients with the trypanosomal infection Chagas' disease or with mucotaneous Leishmaniasis (Barclay et al., 1978; Cerisola et al., 1978; Coura et al., 1978; Fava et al., 1978), apart from our preliminary studies (White et al., 1982) the only published data on its pharmaco- kinetics are for human plasma concentrations measured by polarography (Raaflub & Ziegler, 1979; Raaflub, 1980). Here we describe the pharmacokinetics of benznidazole in the mouse, sheep and dog, as determined by high-performance liquid chromatography (HPLC). […] The Macmillan Press Ltd., 1984 292 P. WORKMAN et al. particularly on plasma and tumour concentrations, have been used as a basis for the estimation of the benznidazole doses required in a Phase I trial of benznidazole plus CCNU, at present ongoing in our Unit. Materials and methods Animals and tumours Adult inbred male BALB/c mice were obtained from OLAC (Southern) Ltd. (Bicester, UK) and adult inbred C3H/He mice of both sexes from OLAC and our own breeding colony. Mice were housed in plastic cages on sawdust bedding made from soft white woods, and allowed laboratory chow and water ad lib. They were used at 20-35 g body wt.

plasma proteins = assay: Plasma protein binding in sheep (plasma ultrafiltrate); format: in vivo
Text: Br. J. Cancer (1984), 50, 291-303 Preclinical pharmacokinetics of benznidazole P. Workman', R.A.S. White2, M.I. Walton', L.N. Owen2* & P.R. Twentyman' 1MRC Clinical Oncology and Radiotherapeutics Unit, MRC Centre, Hills Road, Cambridge CB2 2QH, and 2Department of Clinical Veterinary Medicine, University of Cambridge, Madingley Road, Cambridge CB3 OES, UK. […] We have investigated the detailed pharmacokinetics of benznidazole in mice, dogs and sheep to provide a data base for the estimation of doses required for chemosensitization in man. Pharmacokinetic behaviour was linear except at high doses in mice. Absorption was fairly rapid and bioavailability was complete following both i.p. administration in mice and oral administration in dogs. […] Although benznidazole is used quite widely in South America to treat patients with the trypanosomal infection Chagas' disease or with mucotaneous Leishmaniasis (Barclay et al., 1978; Cerisola et al., 1978; Coura et al., 1978; Fava et al., 1978), apart from our preliminary studies (White et al., 1982) the only published data on its pharmaco- kinetics are for human plasma concentrations measured by polarography (Raaflub & Ziegler, 1979; Raaflub, 1980). Here we describe the pharmacokinetics of benznidazole in the mouse, sheep and dog, as determined by high-performance liquid chromatography (HPLC). […]

[2] = Plasma pharmacokinetics in man (literature); format: in vivo; conditions: oral doses of 6-20 mg kg-1, extrapolated from dog and literature human data
bovine serum albumin = system: bovine serum albumin; set-up: method as in Clarke & Wardman, cited in Watts et al., 1980; conditions: ref Clarke & Wardman, cited in Watts et al., 1980; cited from earlier work
KHT tumour = conditions: mice, cited from earlier work
[3] = set-up: method as in earlier work; conditions: patients, 5 mg kg-1 day-1 for 30 days, side effects incl. peripheral neuropathy observed in these studies, ref Barclay et al., 1978, Cerisola et al., Coura et al., Fava et al.; cited from earlier work
[4] = benznidazole 78 mg kg-1 i.p., ref Twentyman & Workman, 1983, Siemann et al.

peak whole plasma concentration (+2 s.e.) ([1]; BALB/c mice, 26 mg kg-1 i.p.): 18.0+3.7 µg ml-1
i.p. bioavailability (from AUC0-∞) ([1]; BALB/c mice, 50% polyethylene glycol/saline vehicle): 87%
i.p. bioavailability (from AUC0-∞) ([1]; BALB/c mice, dimethyl sulphoxide vehicle): 113%
peak whole plasma concentration (+2 s.e.) ([1]; BALB/c mice, 78 mg kg-1 i.p.): 36.0+2.5 µg ml-1
peak whole plasma concentration (+2 s.e.) ([1]; BALB/c mice, 650 mg kg-1 i.p.): 105+15 µg ml-1
blood/whole plasma concentration ratio, overall mean (s.e., n=16) ([1]; BALB/c mice, 650 mg kg-1 i.p. in arachis oil, 45-135 min): 116+4%
whole plasma concentration remaining at 24 h ([1]; BALB/c mice, 650 mg kg-1 i.p., experiment of Figure 3): 15 µg/mL
half-life ([1]; male, plasma, ip, BALB/c mice, 26 mg kg-1 i.p., suspension in 50% polyethylene glycol, read-out: elimination half-life (95% confidence limits)): 1.55 h
half-life ([1]; male, plasma, ip, BALB/c mice, 68 mg kg-1 (so in the source) i.p., suspension in 50% polyethylene glycol, read-out: elimination half-life (95% confidence limits)): 1.6 h
Tmax ([1]; male, plasma, ip, BALB/c mice, 650 mg kg-1 i.p.): 1 h
Tmax ([1]; male, plasma, ip, BALB/c mice, 26 and 78 mg kg-1 i.p.): 0.25 to 0.5 h
half-life ([1]; male, plasma, iv, BALB/c mice, 32.5 mg kg-1 i.v. in dimethyl sulphoxide, read-out: elimination half-life (95% confidence limits)): 1.98 h
half-life ([1]; male, plasma, iv, BALB/c mice, 65 mg kg-1 i.v. in dimethyl sulphoxide, read-out: elimination half-life (95% confidence limits)): 1.95 h
peak whole plasma concentration that would be produced ([1]; mice, 13 mg kg-1 i.p.): about 10 µg ml-1
whole plasma concentration (dose-peak concentration curve, Figure 4) ([1]; mice, 26 mg kg-1 i.p.): 20 µg/mL
whole plasma concentration ([1]; mice, 78 mg kg-1 i.p., discussion summary): 30 µg/mL
whole plasma concentration (dose-peak concentration curve, Figure 4) ([1]; mice, 650 mg kg-1 i.p.): 90 µg/mL
whole plasma concentration remaining at 24 h ([1]; mice, 650 mg kg-1 i.p., some other experiments (undetectable)): < 0.2 µg/mL
peak whole plasma concentration per administered mg kg-1 ([1]; mice, i.p. route, doses giving linear kinetics): 0.75 micrograms ml-1
half-life ([1]; plasma, mice, summary value, read-out: elimination t1/2): 1.5 h
metabolites detectable by HPLC with u.v. detection at 313 nm ([1]; plasma, urine and tissues of all species studied): no evidence of metabolites
fraction unbound (plasma proteins; male, Clun Forest/Border Leicester cross, plasma, iv, sheep 2, 4 mg kg-1 i.v., read-out: protein binding (s.e., n=6) (converted)): 0.58
binding to plasma proteins (plasma proteins; sheep, discussion summary): 42%
predicted circulating (peak whole plasma) concentrations [2]: 10-30 micrograms ml-1
SMILES: O=C(Cn1ccnc1[N+](=O)[O-])NCc1ccccc1 [benznidazole, N-benzyl-(2-nitroimidazolyl) acetamide]
binding (bovine serum albumin): 46%
enhancement factor of CCNU response in normal tissues (KHT tumour; [4]): 1.2-1.4
enhancement factor of tumour response to CCNU (KHT tumour; [4]): 1.5-2
i.p. dose giving clear enhancement of KHT tumour response to CCNU (at least as low as) (KHT tumour; ref Workman & Twentyman, 1982): ≤ 13 mg/kg
tolerability [3]: well tolerated
